# Data: PMC9412534, “Diindolylmethane Derivatives: New Selective Blockers for T-Type Calcium Channels” (Membranes, 2022)
# How the values were obtained:
# CaV2.2 = molecular target: T1, CaV2.2 (Homo sapiens, UniProt Q00975); experiment: HVA N-type calcium channel FLIPR assay in SH-SY5Y cells; assay type: cell-based; conditions: 10 µM nifedipine present, n = 3, read-out: IC50 CaV2.2 (HVA CaVs)
# T1 construct: endogenous in cells; host or cells: SH-SY5Y human neuroblastoma cells
# Protocol: (§1) The human embryonic kidney 293 (HEK 293) cell lines (from Emmanuel Bourinet, Montpellier, France) stably expressing CaV3.2 or CaV3.3 were cultured under 5% carbon dioxide at 37 °C in Dulbecco’s Modified Eagle Medium (DMEM) Glutamax (Gibco, Life Technologies, Carlsbad, CA, USA) supplemented with 10% (v/v) fetal bovine serum (FBS), 100 U/mL penicillin, 100 μg/mL streptomycin (Gibco, Life Technologies, Carlsbad, CA, USA), and 750 μg/mL geneticin (G418) (Gibco, Life Technologies). The Chinese Hamster Ovary (CHO) cell lines (Emmanuel Bourinet, Montpellier, France) expressing CaV3.1 were cultured under 5% carbon dioxide at 37 °C in Alpha Minimum Essential Media (MEM) Glutamax (Gibco, Life Technologies), supplemented with 10% (v/v) fetal bovine serum (FBS) and 300 μg/mL geneticin (G418) (Gibco, Life Technologies). The human neuroblastoma SH-SY5Y cells (Victor Diaz, Goettingen, Germany) were cultured under 5% carbon dioxide at 37 °C in RPMI 1640 antibiotic-free medium (Invitrogen, Carlsbad, CA, USA), supplemented with 15% FBS and 2 mM GlutaMAX™ (Invitrogen). D-PBS (Gibco, Life Technologies) was used to wash the cells, and 0.25% Trypsin-EDTA (Gibco, Life Technologies) was used to detach cells from the flask surface. They were split in a ratio of 1:5 (ideally 1000 cells/cm^2) when they reached 70–80% confluence (every 2–3 days). Transiently transfected CaV3.1 HEK293 T cells were used in FLIPR Assays. HEK 293 T cells were cultured under 5% carbon dioxide at 37 °C in DMEM supplemented with 10% (v/v) FBS. D-PBS was used to wash the cells, and 0.25% Trypsin-EDTA was used to detach cells from the flask surface. The cells were split and seeded at 6 million cells per T175 flask, to reach 70–80% confluence after 24 h. The next day, 12 μg DNA of human CaV3.1 was incubated in 900 μL serum-free DMEM with 36 μL FuGENE HD transfection reagent (Promega Corporation, Madison, WI, USA) (1:3 DNA/Fugene ratio) for 20 min, and then the mixture was added into the cell flask slowly, drop by drop. After the transfection, the cells were cultured under 5% carbon dioxide at 37 °C for 24 h and then moved to a 28 °C incubator.
# (§2) SH-SY5Y cells were seeded into 384-well black wall clear bottom plates at a density of 15,000 cells per well, resulting in 90–95% confluence after 24 h. The media were then removed from the wells and replaced with 20 μL of 10% calcium 4 dye (Molecular Devices) in physiological salt solution (PSS) (containing 5.9 mM KCl, 1.4 mM MgCl2, 10 mM HEPES, 1.2 mM NaH2 PO4, 5 mM NaHCO3, 140 mM NaCl, 11.5 mM glucose, and 1.8 mM CaCl2, pH 7.4) with 0.1% BSA. As reported, for N-type calcium channel FLIPR assays the cells were pre-incubated with 10 µM nifedipine added in the dye to ensure full inhibition of L-type calcium responses. For L-type calcium channel FLIPR assays, the cells were pre-incubated with 1 µM CVID added in the dye to ensure full inhibition of N-type calcium responses. Positive control on the first reagent plate contained 15 μL of PSS (0.1% BSA), whereas PSS (0.1% BSA) containing 1 µM CVID and 10 µM nifedipine (final concentration) was used as a negative control. The fluorescence readings were recorded and converted as described previously, and agonist containing 90 mM KCl + 5 mM CaCl2 was used in the second addition.
# CaV3.3 = CaV3.3 (Homo sapiens, UniProt Q9P0X4); experiment: T-type calcium channel window current FLIPR assay, CaV3.3; assay type: cell-based; conditions: FLIPR window current; for IC50: n = 3, read-out: IC50 CaV3.3 (LVA CaVs)
# Protocol: as §1
# (§3) HEK 293 cells stably expressing CaV3.2 or CaV3.3 were seeded into 384-well black wall clear bottom plates (Corning) at a density of 30,000 cells per well. Transiently transfected CaV3.1HEK293 T cells were seeded into 384-well black wall clear bottom plates at a density of 60,000 cells per well. Once the cells reached 90–95% confluence after 24 h, the media were removed from the wells and replaced with 20 μL of 10% calcium 4 dye (Molecular Devices, Sunnyvale, CA, USA) in HBSS-HEPES (containing 5 mM KCl, 10 mM HEPES, 140 mM NaCl, 10 mM glucose, and 0.5 mM CaCl2, pH 7.4) with 0.1% bovine serum albumin (BSA). The cells were incubated for 30 min at 37 °C in the presence of 5% carbon dioxide. Each well on the reagent plates for the first addition contained 15 μL different concentrations of compounds dissolved in HBSS-HEPES containing 0.1% BSA and <0.5% DMSO and was incubated for 20 min after loaded. Positive and negative controls contained 15 μL of HBSS-HEPES (0.1% BSA) alone. The plates were placed in the FLIPR^TETRA (Molecular Devices, Sunnyvale, CA, USA) programmed to measure maximum fluorescence intensity following a second addition of the agonist 5 mM CaCl2. The fluorescence readings were recorded and converted as described previously, and HBSS-HEPES (0.1% BSA) was used in the second addition as a negative control.
# human CaV3.1 = molecular target: T2, human CaV3.1 (Homo sapiens, UniProt O43497); experiment: T-type calcium channel window current FLIPR assay, CaV3.1; assay type: cell-based; conditions: n = 3, read-out: IC50 CaV3.1 (LVA CaVs)
# T2 construct: expressed in transfected cells; host or cells: HEK 293 T cells, transient transfection (FuGENE HD)
# Protocol: as §1, §3
# T-47D cells = experiment: Cell viability MTT assay, T-47D; assay type: cell-based, human; conditions: Homo sapiens, T47D, 72 h treatment; for viability at 50 µM: n = 4
# Protocol: (§4) Human breast cancer cell line MCF-7 and T-47D, lung cancer cell line A549, and colon cancer cell line HT-29 were cultured under 5% carbon dioxide at 37 °C in DMEM Glutamax (Gibco, Life Technologies) supplemented with 10% (v/v) FBS. They were split in a ratio of 1:3–1:6 (ideally 2–4 × 10,000 cells/cm^2) when they reached 70–80% confluence using 0.25% Trypsin-EDTA. For cell viability MTT assay, cells were seeded into 96-well clear bottom culture plates (Corning, Lowell, MA, USA) at a density of 5 × 10^3 cells/well and settled at 37 °C for 24 h.
# (§5) Seeded cells were treated with various concentrations of compounds for desired time period (24, 48 and 72 h). After the treatments, the media were removed from each well, and replaced with 25 μL of serum-free media and 25 μL of MTT Reagent (cat. no., ab211091; Abcam, Cambridge, MA, USA). The plate was then incubated at 37 °C for 3 h, and 75 μL of MTT Solvent (cat. no., ab211091; Abcam) was added into each well after incubation. The absorbance was evaluated at 590 nm. Cell-wells treated with 0.1% DMSO were used as positive control and no cell-wells were used as background control.
# HT-29 cells = experiment: Cell viability MTT assay, HT-29; assay type: cell-based, human; conditions: for viability at 50 µM: HT-29, 50 µM, n = 4; for preferential anti-proliferative activity on HT-29: versus MCF-7, T-47D, A549
# Protocol: as §4, §5
# CaV1 = experiment: HVA L-type calcium channel FLIPR assay in SH-SY5Y cells; assay type: cell-based, human; conditions: 1 µM CVID present, n = 3, read-out: IC50 CaV1 (HVA CaVs)
# Protocol: as §1, §2
# A549 cells = experiment: Cell viability MTT assay, A549; assay type: cell-based, human; conditions: for viability at 50 µM: A549, 50 µM, n = 4
# Protocol: as §4, §5
# MCF-7 cells = experiment: Cell viability MTT assay, MCF-7; assay type: cell-based, human; conditions: Homo sapiens, 72 h treatment; for viability at 50 µM: MCF7, 50 µM, n = 4
# Protocol: as §4, §5
# CaV3.2 = CaV3.2 (Homo sapiens, UniProt O95180); experiment: T-type calcium channel window current FLIPR assay, CaV3.2; assay type: cell-based; conditions: FLIPR window current, n = 3; read-out: IC50 CaV3.2 (LVA CaVs)
# Protocol: as §1, §3
# [1] = test system: voltage-gated calcium channels (VGCC); experiment: VGCC FLIPR cell-based assays, all channels (overall observation); set-up: species or system human
# Protocol: as §3, §2
# [2] = Solubility in assay buffer with 0.1% BSA; assay type: physicochemical
# T1 sequence (Q00975 whole entry): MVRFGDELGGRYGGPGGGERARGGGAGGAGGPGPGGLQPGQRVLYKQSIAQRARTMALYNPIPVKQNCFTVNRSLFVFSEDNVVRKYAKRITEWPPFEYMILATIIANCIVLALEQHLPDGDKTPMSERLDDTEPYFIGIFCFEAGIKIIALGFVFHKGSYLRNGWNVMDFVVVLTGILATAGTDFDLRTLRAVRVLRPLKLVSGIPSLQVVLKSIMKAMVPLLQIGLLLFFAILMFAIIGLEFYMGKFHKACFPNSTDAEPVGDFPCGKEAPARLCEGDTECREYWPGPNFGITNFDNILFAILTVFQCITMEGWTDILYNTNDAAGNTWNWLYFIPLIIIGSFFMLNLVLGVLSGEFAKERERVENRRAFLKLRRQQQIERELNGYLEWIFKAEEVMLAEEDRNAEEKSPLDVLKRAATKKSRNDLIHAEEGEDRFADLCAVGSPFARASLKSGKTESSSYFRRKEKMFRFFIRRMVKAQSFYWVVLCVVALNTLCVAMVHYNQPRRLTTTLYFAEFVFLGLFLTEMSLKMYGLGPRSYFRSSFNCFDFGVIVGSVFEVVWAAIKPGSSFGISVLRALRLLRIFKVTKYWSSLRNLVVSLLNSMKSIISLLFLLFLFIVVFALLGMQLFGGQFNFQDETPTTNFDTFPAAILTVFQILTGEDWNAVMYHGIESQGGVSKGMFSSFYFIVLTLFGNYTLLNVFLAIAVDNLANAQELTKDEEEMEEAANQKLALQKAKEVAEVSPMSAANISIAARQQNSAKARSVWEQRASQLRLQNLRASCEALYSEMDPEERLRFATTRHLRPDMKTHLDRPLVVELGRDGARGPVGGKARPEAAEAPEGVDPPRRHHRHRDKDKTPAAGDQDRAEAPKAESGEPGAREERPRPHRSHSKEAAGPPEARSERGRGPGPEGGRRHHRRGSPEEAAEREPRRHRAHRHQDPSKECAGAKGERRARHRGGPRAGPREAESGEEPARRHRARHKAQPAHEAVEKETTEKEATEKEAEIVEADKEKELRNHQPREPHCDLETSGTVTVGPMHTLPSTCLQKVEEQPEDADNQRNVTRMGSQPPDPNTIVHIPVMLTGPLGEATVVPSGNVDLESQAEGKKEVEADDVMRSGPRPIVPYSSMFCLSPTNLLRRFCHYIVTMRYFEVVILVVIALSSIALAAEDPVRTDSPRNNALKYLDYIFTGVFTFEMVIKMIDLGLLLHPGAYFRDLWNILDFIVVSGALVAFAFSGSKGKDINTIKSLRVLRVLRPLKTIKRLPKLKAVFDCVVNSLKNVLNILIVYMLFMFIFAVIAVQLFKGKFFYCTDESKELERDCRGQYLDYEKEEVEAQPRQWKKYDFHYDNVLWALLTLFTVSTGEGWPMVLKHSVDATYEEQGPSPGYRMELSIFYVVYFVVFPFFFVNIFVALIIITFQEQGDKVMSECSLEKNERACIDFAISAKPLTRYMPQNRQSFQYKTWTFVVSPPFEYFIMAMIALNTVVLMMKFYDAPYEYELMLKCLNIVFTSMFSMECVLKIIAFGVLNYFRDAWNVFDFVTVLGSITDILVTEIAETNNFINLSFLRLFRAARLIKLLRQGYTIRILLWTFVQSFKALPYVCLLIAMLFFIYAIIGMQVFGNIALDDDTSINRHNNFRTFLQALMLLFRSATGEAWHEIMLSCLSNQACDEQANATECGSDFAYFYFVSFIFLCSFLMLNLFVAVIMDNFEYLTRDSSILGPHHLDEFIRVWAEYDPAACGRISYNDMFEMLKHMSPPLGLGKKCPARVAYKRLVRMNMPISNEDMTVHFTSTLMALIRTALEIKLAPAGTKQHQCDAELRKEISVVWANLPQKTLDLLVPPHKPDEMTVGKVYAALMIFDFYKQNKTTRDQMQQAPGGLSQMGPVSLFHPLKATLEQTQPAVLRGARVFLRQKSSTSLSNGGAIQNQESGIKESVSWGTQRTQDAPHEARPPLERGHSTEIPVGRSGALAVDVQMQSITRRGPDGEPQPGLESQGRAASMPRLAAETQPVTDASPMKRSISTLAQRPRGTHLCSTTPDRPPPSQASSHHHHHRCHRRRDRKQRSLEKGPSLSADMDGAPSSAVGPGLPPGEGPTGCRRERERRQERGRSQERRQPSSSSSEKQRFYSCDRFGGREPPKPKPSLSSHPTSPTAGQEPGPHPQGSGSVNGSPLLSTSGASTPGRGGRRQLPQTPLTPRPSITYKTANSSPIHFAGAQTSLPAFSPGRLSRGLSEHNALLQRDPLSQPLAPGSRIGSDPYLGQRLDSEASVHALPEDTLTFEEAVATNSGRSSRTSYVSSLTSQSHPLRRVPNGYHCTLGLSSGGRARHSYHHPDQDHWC
# T1 sequence (P54289 25-956 partner limits assumed): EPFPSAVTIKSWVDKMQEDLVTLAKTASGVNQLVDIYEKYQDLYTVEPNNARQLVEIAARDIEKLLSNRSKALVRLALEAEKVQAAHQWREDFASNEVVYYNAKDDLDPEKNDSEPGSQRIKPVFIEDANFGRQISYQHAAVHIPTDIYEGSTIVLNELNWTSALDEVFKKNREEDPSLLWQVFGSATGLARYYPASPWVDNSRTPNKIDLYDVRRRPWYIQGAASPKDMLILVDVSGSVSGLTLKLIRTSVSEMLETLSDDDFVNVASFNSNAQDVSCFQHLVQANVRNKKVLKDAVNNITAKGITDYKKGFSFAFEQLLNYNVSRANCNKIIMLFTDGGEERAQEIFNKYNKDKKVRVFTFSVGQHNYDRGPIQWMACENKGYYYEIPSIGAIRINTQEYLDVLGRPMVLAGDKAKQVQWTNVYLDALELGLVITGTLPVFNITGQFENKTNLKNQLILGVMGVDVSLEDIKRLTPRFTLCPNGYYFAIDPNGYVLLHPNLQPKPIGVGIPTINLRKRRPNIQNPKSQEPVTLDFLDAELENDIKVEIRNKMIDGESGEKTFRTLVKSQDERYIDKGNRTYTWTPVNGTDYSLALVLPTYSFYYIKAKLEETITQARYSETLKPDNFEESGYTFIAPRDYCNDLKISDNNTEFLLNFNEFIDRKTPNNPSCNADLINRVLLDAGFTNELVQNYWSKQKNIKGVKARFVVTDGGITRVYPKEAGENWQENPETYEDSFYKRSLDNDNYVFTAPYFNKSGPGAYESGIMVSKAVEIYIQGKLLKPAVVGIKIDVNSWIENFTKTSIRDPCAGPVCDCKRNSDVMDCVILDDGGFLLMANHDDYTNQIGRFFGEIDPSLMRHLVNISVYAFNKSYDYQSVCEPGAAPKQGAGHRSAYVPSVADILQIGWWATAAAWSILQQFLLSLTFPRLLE
# T1 sequence (P54289 957-1103 partner limits assumed): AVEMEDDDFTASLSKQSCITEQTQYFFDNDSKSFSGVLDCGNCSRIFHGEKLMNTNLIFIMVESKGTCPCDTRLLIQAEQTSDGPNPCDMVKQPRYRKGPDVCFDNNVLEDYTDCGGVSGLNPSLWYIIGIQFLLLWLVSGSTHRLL
# T1 sequence (P54284 whole entry partner): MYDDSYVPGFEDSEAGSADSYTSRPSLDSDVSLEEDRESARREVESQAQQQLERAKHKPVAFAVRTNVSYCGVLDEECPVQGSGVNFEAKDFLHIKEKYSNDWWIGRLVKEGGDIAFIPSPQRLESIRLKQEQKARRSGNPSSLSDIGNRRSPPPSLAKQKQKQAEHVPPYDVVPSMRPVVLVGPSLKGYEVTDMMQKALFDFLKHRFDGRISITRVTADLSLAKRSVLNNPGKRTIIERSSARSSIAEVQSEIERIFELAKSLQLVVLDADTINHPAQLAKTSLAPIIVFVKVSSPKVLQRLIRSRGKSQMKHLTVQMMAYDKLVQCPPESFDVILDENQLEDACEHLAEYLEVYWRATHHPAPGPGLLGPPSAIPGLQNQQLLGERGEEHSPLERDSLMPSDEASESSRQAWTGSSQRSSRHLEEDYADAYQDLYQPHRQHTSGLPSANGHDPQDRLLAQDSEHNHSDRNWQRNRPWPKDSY
IC50 (CaV2.2) [µM],inhibition against CaV3.3 (CaV3.3),IC50 (CaV3.3) [µM],IC50 (human CaV3.1) [µM],IC50 (CaV1) [µM],IC50 (CaV3.2) [µM],"IC50 (T-47D cells; 72 h, n = 3) [µM]","IC50 (HT-29 cells; Homo sapiens, HT-29, 72 h, 72 h treatment, n = 3) [µM]","IC50 (A549 cells; Homo sapiens, A549, 72 h, 72 h treatment, n = 3) [µM]","IC50 (MCF-7 cells; MCF7, 72 h, n = 3) [µM]",solubility in buffer [2],SMILES,viability at 50 µM (T-47D cells) [%],"viability at 50 µM (HT-29 cells; Homo sapiens, 72 h treatment) [%]",preferential anti-proliferative activity on HT-29 (HT-29 cells),"effect on A549 cell proliferation (A549 cells; 50 µM, 72 h)","viability at 50 µM (A549 cells; Homo sapiens, 72 h treatment) [%]",viability at 50 µM (MCF-7 cells) [%],inhibition of all the Ca2+ responses [1],better antiproliferative effect on HT-29 cell viability than on the other three cancer cell lines (HT-29 cells; 72 h treatment) [fold]
60.9 ± 3.37,moderate inhibition,17.8 ± 4.64,58.8 ± 6.85,192 ± 30.5,106 ± 11.8,,,,,,O=C(c1c[nH]c2ccccc12)c1cn(S(=O)(=O)O)c2ccccc12 [III],79.7 ± 3.74,21.6 ± 1.1,preferential anti-proliferative activity,promoted A549 cell proliferation,211 ± 4.69,84.9 ± 5.75,,
32.1 ± 3.01,,13.8 ± 2.02,43.5 ± 3.72,32.1 ± 0.84,17.1 ± 1.87,,,,,,CCOC(=O)C(=O)c1cn(S(=O)(=O)c2ccc(C)cc2)c2ccccc12 [VII],,,,,,,,
53.8 ± 2.43,,> 200,154 ± 18.1,> 200,> 200,,,,,,CCOC(=O)C(=O)c1c[nH]c2ccccc12 [VI],,,,,,,poor inhibition,
90.2 ± 4.93,,92.6 ± 1.46,92.1 ± 4.69,88.2 ± 7.95,67.5 ± 6.05,38,15,27,51,,O=C(c1c[nH]c2cc(Br)ccc12)c1cn(S(=O)(=O)O)c2cc(Br)ccc12 [V],31.4 ± 0.43,0.93 ± 0.06,preferential anti-proliferative activity,,14.1 ± 0.15,29.52 ± 0.19,poor inhibition,≥ 2
,,,,,,,,,,highly insoluble,"O=C(c1cn(S(=O)(=O)O)c2ccccc12)c1cn(S(=O)(=O)O)c2ccccc12 [XI, 3,3'-carbonylbis(1H-indole-1-sulfonic acid)]",,,,,,,,
54.5 ± 1.84,,78.3 ± 4.79,53.4 ± 0.93,47.9 ± 1.37,99.9 ± 3.56,,,,,,Cc1ccc(S(=O)(=O)n2cc(C(=O)c3cn(S(=O)(=O)c4ccc(C)cc4)c4ccccc34)c3ccccc32)cc1 [X],,,,,,,poor inhibition,
